# Reference: patent US20240150377A1, “MODULATORS OF CYSTIC FIBROSIS TRANSMEMBRANE CONDUCTANCE REGULATOR” (VERTEX PHARMACEUTICALS INCORPORATED, priority 2020, published 2024)
# Molecular target: T1, CFTR (Homo sapiens, UniProt P13569, DEL508-508)
# T1 construct: endogenous in cells; host or cells: primary human bronchial epithelial cells from CF subjects (F508del/MF-HBE), differentiated at air-liquid interface
# Assay: HBE2 assay: Ussing chamber assay of CFTR-mediated short-circuit currents
# Assay type: cell-based
# Settings: 3 μM corrector; F508del/MF-HBE cells; with 44 nM potentiator, 18-24 hours, 20% human serum
# Method: Ussing Chamber Assay of CFTR-Mediated Short-Circuit Currents
# After four days the apical media was removed, and the cells were grown at an air liquid interface for >14 days prior to use.
# To isolate the CFTR-mediated short-circuit (ISC) current, F508del/MF-HBE grown on Costar® Snapwell™ cell culture inserts were mounted in an Ussing chamber and the transepithelial ISC was measured under voltage-clamp recording conditions (Vhold=0 mV) at 37° C. […] The CFTR-mediated ISC (μA/cm^2) for each condition was determined from the peak forskolin response to the steady-state current following inhibition.
# Identification of Corrector Compounds
# The activity of the CFTR corrector compounds on the CFTR-mediated ISC was determined in Ussing chamber studies as described above.
# T1 sequence (P13569 with tags, fused parts or gaps DEL508-508): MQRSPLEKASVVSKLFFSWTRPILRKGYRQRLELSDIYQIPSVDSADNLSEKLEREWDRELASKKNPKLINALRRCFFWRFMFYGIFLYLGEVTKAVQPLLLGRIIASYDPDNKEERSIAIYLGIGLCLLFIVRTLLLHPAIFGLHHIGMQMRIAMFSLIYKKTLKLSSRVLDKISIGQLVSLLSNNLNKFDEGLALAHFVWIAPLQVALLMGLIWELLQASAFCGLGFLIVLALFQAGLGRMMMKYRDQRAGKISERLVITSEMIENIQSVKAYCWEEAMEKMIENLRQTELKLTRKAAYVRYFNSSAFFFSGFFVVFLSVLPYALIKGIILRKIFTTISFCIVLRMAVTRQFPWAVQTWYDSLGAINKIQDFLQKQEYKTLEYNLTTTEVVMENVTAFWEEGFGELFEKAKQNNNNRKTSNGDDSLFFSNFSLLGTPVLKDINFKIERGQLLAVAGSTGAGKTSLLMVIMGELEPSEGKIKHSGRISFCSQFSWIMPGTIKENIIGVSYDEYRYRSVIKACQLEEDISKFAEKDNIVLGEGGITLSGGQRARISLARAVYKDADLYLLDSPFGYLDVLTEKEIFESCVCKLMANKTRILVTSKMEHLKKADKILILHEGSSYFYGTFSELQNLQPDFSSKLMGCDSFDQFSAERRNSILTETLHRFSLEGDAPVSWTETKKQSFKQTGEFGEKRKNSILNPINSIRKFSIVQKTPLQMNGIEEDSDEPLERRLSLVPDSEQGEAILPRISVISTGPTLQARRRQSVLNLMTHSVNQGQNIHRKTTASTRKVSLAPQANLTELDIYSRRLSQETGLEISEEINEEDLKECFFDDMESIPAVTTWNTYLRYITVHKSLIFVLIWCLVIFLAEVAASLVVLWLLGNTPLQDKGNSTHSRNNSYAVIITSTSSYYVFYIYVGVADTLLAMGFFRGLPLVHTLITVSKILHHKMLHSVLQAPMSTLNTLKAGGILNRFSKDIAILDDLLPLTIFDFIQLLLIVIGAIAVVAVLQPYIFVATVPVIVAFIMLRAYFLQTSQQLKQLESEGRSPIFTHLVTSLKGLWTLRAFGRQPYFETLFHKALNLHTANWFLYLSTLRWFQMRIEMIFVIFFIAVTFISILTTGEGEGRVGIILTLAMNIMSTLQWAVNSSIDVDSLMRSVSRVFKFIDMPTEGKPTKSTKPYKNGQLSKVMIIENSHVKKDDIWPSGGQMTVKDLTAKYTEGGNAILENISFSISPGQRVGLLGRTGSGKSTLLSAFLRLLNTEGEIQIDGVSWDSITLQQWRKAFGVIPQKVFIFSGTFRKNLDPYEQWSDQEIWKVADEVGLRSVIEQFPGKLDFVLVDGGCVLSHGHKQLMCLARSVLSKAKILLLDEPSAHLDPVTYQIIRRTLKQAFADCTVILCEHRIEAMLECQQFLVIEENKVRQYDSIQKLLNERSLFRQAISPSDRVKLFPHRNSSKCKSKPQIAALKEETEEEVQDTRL
row,Structure (SMILES),HBE2 Activity at 3 μM (%)
1,Cc1cccc(C)c1-c1cc2nc(n1)NS(=O)(=O)c1cccc(c1)C(=O)N(Cc1cncc(N3CCC(C)(C)[C@H]3C)n1)[C@H](CC(C)(C)C)CO2 (stereo in doubt) [Compound 1723],+++ (+++ is >60+)
2,Cc1cccc(C)c1-c1cc2nc(n1)NS(=O)(=O)c1cccc(c1)C(=O)N(Cc1cncc(N(C)C3CCC3)n1)[C@@H]1CN(CC(C)(C)C)CC1O2 (stereo in doubt) [Compound 1740],++ (++ is 30-60%)
3,Cc1cccc(C)c1-c1cc2nc(n1)NS(=O)(=O)c1cccc(c1)C(=O)N(Cc1cncc(N3CCC[C@H]4CC[C@H]43)n1)[C@H](CCC(C)C)CO2 (stereo in doubt) [Compound 1746],+++ (+++ is >60+)
4,Cc1cccc(C)c1-c1cc2nc(n1)NS(=O)(=O)c1cccc(c1)C(=O)N(Cc1cncc(N3CC(C)(C)[C@H]3C(C)C)n1)[C@H](CC(C)(C)C)CO2 (stereo in doubt) [Compound 1751],+++ (+++ is >60+)
5,Cc1cccc(C)c1-c1cc2nc(n1)NS(=O)(=O)c1cccc(c1)C(=O)N(Cc1cncc(N3CCO[C@@H](C)[C@H]3C)n1)[C@H](CC(C)(C)C)CO2 (stereo in doubt) [Compound 1760],+++ (+++ is >60+)
6,Cc1cccc(C)c1-c1cc2nc(n1)NS(=O)(=O)c1cccc(c1)C(=O)N(Cc1cncc(N(C)C3CCC3)n1)[C@@H]1CCN(CC(C)(C)C)CC1O2 (stereo in doubt) [Compound 1765],++ (++ is 30-60%)
7,Cc1cccc(C)c1-c1cc2nc(n1)NS(=O)(=O)c1cccc(c1)C(=O)N(Cc1cncc(N(C)[C@@H]3CC[C@H]3C)n1)[C@H](CC(C)(C)C)CO2 (stereo in doubt) [Compound 1772],+++ (+++ is >60+)
8,Cc1cccc(C)c1-c1cc2nc(n1)NS(=O)(=O)c1cccc(c1)C(=O)N(Cc1cncc(N(C)[C@H]3CC[C@@H]3C)n1)[C@H](CC(C)(C)C)CO2 (stereo in doubt) [Compound 1773],+++ (+++ is >60+)
9,Cc1cccc(C)c1-c1cc2nc(n1)NS(=O)(=O)c1cccc(c1)C(=O)N(Cc1cncc(N3CCCC4CCC43)n1)[C@H](CCC(C)(C)C)CO2 (stereo in doubt) [Compound 1781],+++ (+++ is >60+)
10,Cc1cccc(C)c1-c1cc2nc(n1)NS(=O)(=O)c1cccc(c1)C(=O)N(Cc1cncc(N3CCCC4CCC43)n1)[C@H](CCC(C)(C)C)CO2 (stereo in doubt) [Compound 1782],+++ (+++ is >60+)
11,Cc1cccc(C)c1-c1cc2nc(n1)NS(=O)(=O)c1cccc(c1)C(=O)N(Cc1cncc(N3C[C@H]4CCCCC43)n1)[C@H](CC(C)(C)C)CO2 (stereo in doubt) [Compound 1799],+++ (+++ is >60+)
12,Cc1cccc(C)c1-c1cc2nc(n1)NS(=O)(=O)c1cccc(c1)C(=O)N(Cc1cncc(N3CCCC4CCC43)n1)[C@H](CC1CC1)CO2 (stereo in doubt) [Compound 1838],+++ (+++ is >60+)
13,Cc1cccc(C)c1-c1cc2nc(n1)NS(=O)(=O)c1cccc(c1)C(=O)N(Cc1cncc(N3CC[C@@H]3C)n1)[C@H](CC1CCCC1)CO2 (stereo in doubt) [Compound 1843],+++ (+++ is >60+)

# Same assay, conditions: 3 μM; F508del/MF-HBE cells; with 44 nM potentiator; 18-24 hours; 20% human serum
row,Structure (SMILES),HBE2 Activity at 3 μM (%)
1,Cc1cccc(C)c1-c1cc2nc(n1)NS(=O)(=O)c1cccc(c1)C(=O)N(Cc1cncc(N(C)[C@@H]3CC4COCC43)n1)[C@H](CC(C)(C)C)CO2 (stereo in doubt) [Compound 1676],+++ (+++ is >60+)
2,Cc1cccc(C)c1-c1cc2nc(n1)NS(=O)(=O)c1cccc(c1)C(=O)N(Cc1cncc(N(C)[C@@H]3C[C@H]4COC[C@H]43)n1)[C@H](CC(C)(C)C)CO2 (stereo in doubt) [Compound 1677],+++ (+++ is >60+)
3,Cc1cccc(C)c1-c1cc2nc(n1)NS(=O)(=O)c1cccc(c1)C(=O)N(Cc1cncc(N3CCC[C@H]4COC[C@H]43)n1)[C@H](CC(C)(C)C)CO2 (stereo in doubt) [Compound 1679],+++ (+++ is >60+)
